Legend:
[1] = system: VDAC3 in HT1080 cells; assay: Drug sensitivity after shRNA knockdown of VDAC3; assay type: cell-based, human; settings: shRNAs targeting VDAC3, alamar blue
Procedure: (§1) On day one, 3×10^5 Calu-1 cells or 2×10^5 HT1080 cells were seeded in 10-cm dishes; on day 2, frozen virus stock was thawed at 37° C., hexadimethrine bromide (polybrene) (Sigma, cat.#H9268) was added to the virus solution at a final concentration of 8 μg/mL and growth media from cell culture was replaced with the virus/polybrene mixture. The culture was returned to the tissue culture incubator for 2 hours, with rocking of the dishes every 30 min in order to prevent drying. After 2 h, 10 mL growth medium was added, the culture was incubated for 2 days, and cells stably expressing shRNA were selected by adding puromycin (Sigma, cat.#P9620) at a final concentration of 1.5 μg/mL.
(§2) On the day of experiment, assay plates were prepared by seeding 3,000 HT1080, HT1080-pLKO, HT1080-TfR1 KD, Calu-1, Calu-1-pLKO, or Calu-1-509 cells per well in 36 μL of growth media to black, clear bottom 384-well plates. Also, assay plates were prepared by seeding 1,500 shRNA infected HT1080 or Calu-1 cells per well. Cells in assay plates were treated with each lethal compound in a 2-fold dilution series by transferring 4 μL solution from a 10× lethal plate of Erastin, Compound 3, Compound 27, or Compound 36. […] Percent growth inhibition (% GI) was calculated using fluorescence intensity values.

[2] = system: PARP-1 cleavage in BJ-TERT/LT/ST/RAS^V12 cells; assay: Western blot of PARP-1 cleavage upon compound treatment; assay type: cell-based, human; settings: Western blot with anti-PARP-1 antibody
Procedure: 2×10^6 BJ-TERT/LT/ST/RAS^V12 cells were seeded in 10 cm dishes and treated with 1 μM staurosporine, 10 μg/mL erastin, 20 μg/mL Compound 3, and 1 μg/mL Compound 27 for 16 h. Both dying cells and live cells in each 10 cm dish were harvested and collected in the same 15 mL tubes by centrifuging cell suspension at 1,000 rpm for 5 min. Cell pellets were washed three times with PBS and cells were lysed in 200 μL of denaturing lysis buffer (50 mM HEPES KOH [pH 7.4], 40 mM NaCl, 2 mM EDTA, 1.5 mM Na3VO4, 50 mM NaF, 10 mM sodium pyrophosphate, 10 mM sodium β-glycerophosphate, 0.5% Triton X-100, and protease inhibitor tablet [Roche, cat.#11836170001]). Protein content was quantified using a Bio-Rad protein assay reagent (Bio-Rad, cat.#500-00006). Equal amounts of protein were resolved on SDS-polyacrylamide gels. The electrophoresed proteins were transblotted onto a PVDF membrane, blocked with 5% milk, and incubated with rabbit primary antibodies specific to: PARP (Santa Cruz, cat.#sc-7150), cleaved caspase-3 (Cell Signaling Technology, cat.#9661) overnight at 4° C. The membrane was then incubated in IRDye 800 goat anti-rabbit antibody (Li-cor Bioscience cat.#926-32211) at 1:3,000 dilutions for 45 min at room temperature. After washing off the unbound antibodies, membranes were scanned using the Odyssey™ Imaging System (Li-cor Bioscience).

[3] = system: HT1080-TfR1KD cells; assay: Drug sensitivity after shRNA knockdown of TfR1; assay type: cell-based, human; settings: alamar blue
Procedure: as §1, §2

[4] = system: HL-60(TB); assay: cells; settings: Homo sapiens; for GI50: HL-60; for CC50: HL-60, read-out: LC 50%
[5] = system: SNB-75; assay: NCI60 anti-cancer screening; settings: for GI50 / CC50: Homo sapiens; for GI50 / GI 100%: SNB-75; for CC50: SNB-75, read-out: LC 50%; for GI 100%: CNS Cancer
[6] = system: UO-31; assay: NCI60 anti-cancer screening; settings: for GI50 / CC50: Homo sapiens; for GI50 / GI 100%: UO-31; for CC50: UO-31, read-out: LC 50%; for GI 100%: Renal Cancer
[7] = system: NCI/ADR-RES; assay: NCI60 anti-cancer screening; settings: for GI 100%: Breast Cancer; for GI50 / CC50: Homo sapiens; for CC50: read-out: LC 50%
[8] = system: HS 578T; assay: NCI60 anti-cancer screening; settings: for GI 100%: HS 578T, Breast Cancer; for GI50 / CC50: Homo sapiens, Hs-578T; for CC50: read-out: LC 50%
[9] = system: HCT-116; assay: NCI60 anti-cancer screening; settings: for GI 100% / GI50: HCT-116; for GI 100%: Colon Cancer; for GI50 / CC50: Homo sapiens; for CC50: HCT-116, read-out: LC 50%
[10] = system: PC-3; assay: NCI60 anti-cancer screening; settings: for GI50 / CC50: Homo sapiens; for GI50 / GI 100%: PC-3; for CC50: PC-3, read-out: LC 50%; for GI 100%: Prostate Cancer
[11] = system: T-47D; assay: NCI60 anti-cancer screening; settings: for GI50 / CC50: Homo sapiens, T47D; for CC50: read-out: LC 50%; for GI 100%: T-47D, Breast Cancer
[12] = system: EKVX; assay: NCI60 anti-cancer screening; settings: for GI50 / CC50: Homo sapiens; for CC50: read-out: LC 50%; for GI 100%: Non-small cell lung carcinoma
[13] = system: NCI-H226; assay: NCI60 anti-cancer screening; settings: for GI50 / CC50: Homo sapiens; for GI50 / GI 100%: NCI-H226; for CC50: NCI-H226, read-out: LC 50%; for GI 100%: Non-small cell lung carcinoma
[14] = system: NCI-H460; assay: NCI60 anti-cancer screening; settings: for GI50 / CC50: Homo sapiens; for GI50 / GI 100%: NCI-H460; for CC50: NCI-H460, read-out: LC 50%; for GI 100%: Non-small cell lung carcinoma
[15] = system: HCT-15; assay: NCI60 anti-cancer screening; settings: for GI 100% / GI50: HCT-15; for GI 100%: Colon Cancer; for GI50 / CC50: Homo sapiens; for CC50: HCT-15, read-out: LC 50%
[16] = system: SF-295; assay: NCI60 anti-cancer screening; settings: for GI50 / CC50: Homo sapiens; for GI50 / GI 100%: SF-295; for CC50: SF-295, read-out: LC 50%; for GI 100%: CNS Cancer
[17] = system: SNB-19; assay: NCI60 anti-cancer screening; settings: for GI50 / CC50: Homo sapiens; for GI50 / GI 100%: SNB-19; for CC50: SNB-19, read-out: LC 50%; for GI 100%: CNS Cancer
[18] = system: IGROV1; assay: NCI60 anti-cancer screening; settings: for GI50 / CC50: Homo sapiens; for GI50: IGROV-1; for CC50: IGROV-1, read-out: LC 50%; for GI 100%: IGROV1, Ovarian Cancer
[19] = system: SK-OV-3; assay: NCI60 anti-cancer screening; settings: for GI50 / CC50: Homo sapiens; for GI50 / GI 100%: SK-OV-3; for CC50: SK-OV-3, read-out: LC 50%; for GI 100%: Ovarian Cancer

For `COCCOC(=O)C1=C(C)NC2=C(C(=O)CC(c3ccc(Cl)cc3)C2)C1c1ccccc1F` (centres unmarked) [Compound 3], the “effect of VDAC3 knockdown on compound-induced cell death” value [1] was “suppressed”, the “PARP-1 cleavage / type of cell death” value [2] was “activate a non-apoptotic pathway” and the “sensitivity of HT1080-TfR1KD cells compared with parental HT1080” value [3] was “decreased sensitivity”. For the same compound, the GI50 [4] was 9800 nM, the CC50 [4] was greater than 10000 nM and the GI50 [5] was 9610 nM. For the same compound, the CC50 [5] was greater than 10000 nM, the “GI 100%” value [5] was greater than 10 µM and the GI50 [6] was 6820 nM. The CC50 [6] was greater than 10000 nM, the “GI 100%” value [6] was greater than 10 µM and the “GI 100%” value [7] was greater than 10 µM. For the same compound, the GI50 [7] was 8930 nM, the CC50 [7] was greater than 10000 nM and the “GI 100%” value [8] was greater than 10 µM. For the same compound, the GI50 [8] was 9310 nM and the CC50 [8] was greater than 10000 nM.
`CCc1c(O)c2c(c(O)c1O[C@H]1O[C@@H](COC(C)=O)[C@H](OC(C)=O)[C@@H](CC(C)=O)[C@@H]1OC(C)=O)C(=O)C(O[C@@H]1O[C@H](COC(C)=O)[C@@H](OC(C)=O)[C@H](OC(C)=O)[C@H]1OC(C)=O)=C(O[C@@H]1O[C@H](COC(C)=O)[C@@H](OC(C)=O)[C@H](OC(C)=O)[C@H]1OC(C)=O)C2=O` [Compound 6] was tested, and the GI50 [4] was 516 nM, the CC50 [4] was 8250 nM and the “GI 100%” value [9] was 1.32 µM. For the same compound, the GI50 [9] was 376 nM, the CC50 [9] was 3640 nM and the GI50 [10] was 5070 nM. For the same compound, the CC50 [10] was greater than 10000 nM, the “GI 100%” value [10] was greater than 10 µM and the “GI 100%” value [8] was greater than 10 µM. For the same compound, the GI50 [8] was 3310 nM, the CC50 [8] was greater than 10000 nM and the GI50 [11] was 4530 nM. For the same compound, the CC50 [11] was 9350 nM and the “GI 100%” value [11] was 2.06 µM.
`COC(=O)c1ccc(C2c3[nH]c4ccccc4c3CC(C(=O)OC)N2C(=O)CCl)cc1` (centres unmarked) [Compound 27] was tested, and the “effect of VDAC3 knockdown on compound-induced cell death” value [1] was “not affected”, the “PARP-1 cleavage / type of cell death” value [2] was “activate a non-apoptotic pathway” and the GI50 [4] was 280 nM. It also gave a CC50 [4] of 1200 nM, a GI50 [12] of 2310 nM and a CC50 [12] greater than 10000 nM. The “GI 100%” value [12] was 5.63 µM, the GI50 [13] was 688 nM and the CC50 [13] was greater than 10000 nM. The “GI 100%” value [13] was 2.79 µM, the GI50 [14] was 1430 nM and the CC50 [14] was 6740 nM. The “GI 100%” value [14] was 3.11 µM, the “GI 100%” value [9] was 1.48 µM and the GI50 [9] was 364 nM. For the same compound, the CC50 [9] was 3840 nM, the “GI 100%” value [15] was 2.83 µM and the GI50 [15] was 1450 nM. It also gave a CC50 [15] of 5540 nM, a GI50 [16] of 1100 nM and a CC50 [16] of 8060 nM. The “GI 100%” value [16] was 2.97 µM, the GI50 [17] was 2350 nM and the CC50 [17] was greater than 10000 nM. The “GI 100%” value [17] was 7.41 µM, the GI50 [5] was 745 nM and the CC50 [5] was greater than 10000 nM. The “GI 100%” value [5] was 3.06 µM, the GI50 [18] was 20.9 nM and the CC50 [18] was 270 nM. For the same compound, the “GI 100%” value [18] was 0.0571 µM, the GI50 [19] was 1680 nM and the CC50 [19] was 6670 nM. The “GI 100%” value [19] was 3.34 µM, the GI50 [6] was 20 nM and the CC50 [6] was 74.3 nM. The “GI 100%” value [6] was 0.0385 µM, the GI50 [10] was 231 nM and the CC50 [10] was 3290 nM. The “GI 100%” value [10] was 1.08 µM, the “GI 100%” value [7] was greater than 10 µM and the GI50 [7] was 2560 nM. For the same compound, the CC50 [7] was greater than 10000 nM, the “GI 100%” value [8] was 2.85 µM and the GI50 [8] was 403 nM. For the same compound, the CC50 [8] was greater than 10000 nM, the GI50 [11] was 1640 nM and the CC50 [11] was greater than 10000 nM. For the same compound, the “GI 100%” value [11] was 5.16 µM.
`C=C1CCC2C(C)(C)CCC[C@]2(C)C1CC/C(C)=C\CC/C(C)=N/NC(N)=S` (some centres unmarked) [Compound 36] was tested, and the “sensitivity of HT1080-TfR1KD cells compared with parental HT1080” value [3] was “decreased sensitivity”, the GI50 [4] was 163 nM and the CC50 [4] was 2620 nM. For the same compound, the GI50 [12] was 1240 nM, the CC50 [12] was 5090 nM and the “GI 100%” value [12] was 2.51 µM. The GI50 [13] was 480 nM, the CC50 [13] was 4550 nM and the “GI 100%” value [13] was 1.66 µM. For the same compound, the GI50 [14] was 626 nM, the CC50 [14] was 5020 nM and the “GI 100%” value [14] was 2.02 µM. The “GI 100%” value [9] was 1.11 µM, the GI50 [9] was 252 nM and the CC50 [9] was 3320 nM. For the same compound, the “GI 100%” value [15] was 1.53 µM, the GI50 [15] was 305 nM and the CC50 [15] was 3930 nM. The GI50 [16] was 1190 nM, the CC50 [16] was 5330 nM and the “GI 100%” value [16] was 2.52 µM. The GI50 [17] was 1050 nM, the CC50 [17] was 5000 nM and the “GI 100%” value [17] was 2.29 µM. The GI50 [5] was 372 nM, the CC50 [5] was 4300 nM and the “GI 100%” value [5] was 1.26 µM. The GI50 [18] was 254 nM, the CC50 [18] was 4170 nM and the “GI 100%” value [18] was 1.28 µM. For the same compound, the GI50 [19] was 1260 nM, the CC50 [19] was 5200 nM and the “GI 100%” value [19] was 2.56 µM. For the same compound, the GI50 [6] was 125 nM, the CC50 [6] was 1470 nM and the “GI 100%” value [6] was 0.385 µM. The GI50 [10] was 548 nM, the CC50 [10] was 4260 nM and the “GI 100%” value [10] was 1.82 µM. The “GI 100%” value [7] was 2.34 µM, the GI50 [7] was 1040 nM and the CC50 [7] was 5270 nM. For the same compound, the “GI 100%” value [8] was 2.27 µM, the GI50 [8] was 420 nM and the CC50 [8] was greater than 10000 nM. The GI50 [11] was 701 nM, the CC50 [11] was greater than 10000 nM and the “GI 100%” value [11] was 3.21 µM.
